{"source": "patent US20200108115A1", "about": "“MEDICINAL COMPOSITION DERIVED FROM MULTIPLE PLANT SOURCES FOR GASTROINTESTINAL DISORDER” (priority 2017, published 2020)", "assay_in_all_cases": "MIC by resazurin micro-titre method", "format_in_all_cases": "cell-based", "key": {"[1]": {"test_system": "Salmonella typhimurium (P3)", "conditions": "Salmonella enterica, 37° C., 18-24 h"}, "[2]": {"test_system": "Klebsiella oxytoca (P4)", "conditions": "37° C., 18-24 h"}, "[3]": {"test_system": "Vibrio cholera (P5)", "conditions": "Vibrio cholerae, read-out: MIC value"}, "[4]": {"test_system": "Helicobacter pylori (P6)", "conditions": "read-out: MIC value"}, "[5]": {"test_system": "Shigella dysenteriae (P7)", "conditions": "read-out: MIC value"}, "[6]": {"test_system": "Streptococcus thermophilus (BB2)", "conditions": "beneficial, 37° C., 18-24 h"}, "[7]": {"test_system": "Bacteroides fragilis (BB3)", "conditions": "beneficial, 37° C., 18-24 h"}, "[8]": {"test_system": "Faecalibacterium prausnitzii (BB5)", "conditions": "beneficial, 37° C., 18-24 h"}}}
{"smiles": "O=C(O)c1cn(C2CC2)c2cc(N3CCNCC3)c(F)cc2c1=O", "note": "[Ciprofloxacin, ciprofloxacin]", "values": [{"measurement": "MIC", "setting": "[1]", "value": 1000, "unit": "µg/mL"}, {"measurement": "MIC", "setting": "[2]", "value": 500, "unit": "µg/mL"}, {"measurement": "MIC", "setting": "[3]", "value": 125, "unit": "µg/mL"}, {"measurement": "MIC", "setting": "[4]", "value": 15.1, "unit": "µg/mL"}, {"measurement": "MIC", "setting": "[5]", "value": 15.1, "unit": "µg/mL"}, {"measurement": "MIC", "setting": "[6]", "value": 31.2, "unit": "µg/mL"}, {"measurement": "MIC", "setting": "[7]", "value": 62.5, "unit": "µg/mL"}, {"measurement": "MIC", "setting": "[8]", "value": 31.2, "unit": "µg/mL"}]}
